# Assay results taken from patent publication US11820973B2, “Methods and system for interfering with viability of bacteria and related compounds and compositions” (CALIFORNIA INSTITUTE OF TECHNOLOGY, priority 2011, dated 2023).
# Entries after “also recorded” stand apart in the source; their conditions may differ.
# Key:
# [1] = test system: P. aeruginosa PA14 biofilm; assay: MBEC assay, anaerobic biofilm prevention; assay type: cell-based, Pseudomonas aeruginosa
# Method: (§1) In some examples, biofilm prevention and dissolution were measured via a high-throughput biofilm assay (MBEC Physiology and Genetics Assay) consisting of a 96-well plate into which a 96-peg plastic lid fits. This lid also fits over a standard 96-well plate, which was subsequently used to test the efficacy of iron chelators. Inoculum was prepared by diluting (30-fold) a 1.0 McFarland suspension of P. aeruginosa PA14 in TSB. 150 μl, was dispensed into each of the 60 inner wells, while 200 μl, of sterile trypticase soy broth (TSB) was placed in each perimeter well. For dissolution experiments, plates were incubated at 37° C. for 24 h, and were transferred to an anaerobic chamber for 24 h at 37° C. in anaerobic TSB containing 50 mM KNO3. Biofilms were then exposed to conalbumin and/or Ferrozine® for 24 h. Each treatment was complemented with the addition of 80 μM ferrous ammonium sulfate. After treatment, lids were rinsed once in 50 mM HEPES, air dried for 10 min and quantified by crystal violet staining. For biofilm prevention, anaerobic inoculum was amended with conalbumin and/or Ferrozine®. Media was replaced every 24 h by transferring the MBEC lid to a sterile plate containing growth media+/− treatments, and biofilms were allowed to develop for 168 h. Biomass was quantified as described above. Biological triplicates and six technical replicates (n=18) were used for each treatment.
# [2] = test system: P. aeruginosa PA14 mature biofilms; assay: MBEC assay, dissolution of mature biofilms; assay type: cell-based, Pseudomonas aeruginosa; conditions: 100 or 200 μM Ferrozine®; 24 h exposure
# Method: as §1
# P. aeruginosa = assay: Planktonic growth rates with iron chelators; assay type: cell-based, Pseudomonas aeruginosa
# [3] = test system: P. aeruginosa PA14 Δphz mutant; assay: Intracellular NADH/NAD^+ ratio in stationary phase cultures; assay type: cell-based, Pseudomonas aeruginosa; conditions: for Effect on intracellular NADH/NAD^+ ratios: stationary phase, 30 mM nitrate, pyocyanin in the micromolar range
# Method: (A) Growth and pyocyanin production for wild type P. aeruginosa PA14 grown aerobically in 10 ml LB in 18×150 mM tubes. (B) NADH/NAD^+ ratios for cultures grown under the same conditions as those described in part (A). At 7 hours, pyocyanin production in the wild type cultures was visible by eye. 45 μM (half the expected final concentration) was added to the Δphz cultures to be tested for complementation, and 15 mM KNO3 was added to cultures to be tested for the effect of an additional electron acceptor. At 9 hours, pyocyanin in the wild type cultures had increased to near-maximum concentrations, so a second dose of pyocyanin or KNO3 was added to the appropriate cultures, for final concentrations of 90 μM and 30 mM, respectively. Water was added to negative controls. Eleven hours after inoculation, and 2 hours after the addition of the final dose of pyocyanin, NAD(H) was extracted and assayed for each culture. (C), NADH/NAD^+ ratios for cultures treated as in part (B), but with varying concentrations of pyocyanin added. (D) NADH and NAD^+ concentrations for cultures described in (B), normalized to OD (500 nm). Error bars represent the standard deviations of triplicate samples. OD, optical density. wt, wild type.
# Two×1 ml of culture were sampled into two separate microcentrifuge tubes and centrifuged at 16,000×g for 1 min. Supernatant was removed and pellets were resuspended in 300 μl of 0.2 M NaOH (for NADH extraction) or 0.2 M HCl (for NAD^+ extraction). […] Supernatants were transferred to fresh tubes and stored at −80° C. until quantification.
# A master reagent mix was prepared with 1× Bicine buffer (2.0 M, pH 8.0), 8× water, 1×80 mM EDTA, 2×100% EtOH, 2×4.2 mM thiazolyl blue (MTT), and 4×16.6 mM phenazine ethosulfate. […] The microtiter plate was incubated at 30° C., mixed by brief shaking, and read every 30-60 seconds for absorbance at 570 nm, which is the spectral peak of MTT that increases upon reduction. Slopes arising from plots of absorbance at 570 nm over time were generated for NADH and NAD^+ standards as well as all samples. […]
# [4] = test system: P. aeruginosa PA14 wild type; assay: Swarming motility, wild type; assay type: cell-based, Pseudomonas aeruginosa; conditions: 100 μM in the swarming agar
# Method: (§2) FIG. 6. Δphz1/2 has increased swarming motility. Quantification of swarming motility. Images of three swarming plates for each strain or condition were captured, exported to Adobe Photoshop and the agar surface covered by the swarms was quantified using the Analysis Tools.
# (§3) Swimming, swarming and twitching motilities were determined as previously described.
# [5] = test system: P. aeruginosa PA14 Δphz1/2; assay: Swarming motility, Δphz1/2; assay type: cell-based, Pseudomonas aeruginosa; conditions: 100 μM in the swarming agar
# Method: as §2, §3
# [6] = test system: P. aeruginosa PA14 Δphz1/2 colonies; assay: Colony biofilm morphology and surface coverage, Δphz1/2; assay type: cell-based, Pseudomonas aeruginosa; conditions: for Effect on rugosity and surface coverage of colonies: 0.2 M of either compound added to the agar
# [7] = test system: P. aeruginosa PA14 wild-type colonies; assay: Colony biofilm morphology, wild type; assay type: cell-based, Pseudomonas aeruginosa; conditions: 0.2 M of either compound added to the agar
# Method: FIG. 8. […] Each day colonies from three independent experiments were scanned and their surface coverage was determined. Representative images of colonies at day 2, 4 and 6 are shown (A; scale bar is 1 cm). The data in (B) show the average surface coverage and standard deviation for the three independent experiments. (C) Phenazine titrations. […] Surface coverage of colonies from three independent experiments was determined after incubation at 20° C. for 7 days. Bars indicate the standard deviation.
# Colony biofilms were grown on agar containing 1% tryptone as previously described. Three colonies from independent spottings were documented for 8 days using an Epson scanner.
# [8] = test system: P. aeruginosa PA14 phenazine null strain (Δphz); assay: Flow cell biofilm development, phenazine null strain, 1% TSB; conditions: 10 μM PCA in the medium flow of the Δphz mutant; by day 6
# [9] = test system: P. aeruginosa PA14 wild type; assay: Flow cell biofilm development, wild type, 1% TSB with or without conalbumin; conditions: wild type; for Rescue of the conalbumin-induced biofilm defect: 10 μM phenazine added to conalbumin-treated 1% TSB, 6 days
# [10] = test system: P. aeruginosa PA14 Δphz1/2; assay: Flow cell biofilms in 10% LB, COMSTAT analysis; assay type: cell-based, Pseudomonas aeruginosa
# Method: Flow cell biofilms were grown under constant flow at 22° C. in 1.5×4×34 mm flow cells. Continuous flow of 10% LB was supplied with a peristaltic pump at a constant rate of […]. An early stationary-phase culture was diluted to an optical density at 500 nm of around 0.1 and 300 μl were inoculated into the flow cell. Strains expressing eyfp constitutively were used to visualize the biofilms. Upon inoculation, cells were allowed to attach in the absence of flow for 1.5 h before flow was resumed. Developing biofilms were imaged in 3 dimensions using a Leica confocal microscope. eYFP was excited with a 488 nm laser beam kept at constant intensity throughout the experiment, and emission from 510 to 618 nm was collected. Routinely, the Applicant observed that the distribution of bacterial cells throughout the colonized surface varied depending on the region of the flow cell, probably due to factors such as flow or accumulation of planktonic cells. To assure reproducibility, all images were acquired from an area set in the middle of the flow cell. Three images of duplicate flow cell lines were recorded and at least two independent experiments were performed.
# To measure the impact of phenazines on biofilm formation directly, a flow cell system was first used to grow wild-type and Δphz1/2 biofilms. In this system, the wild type formed heterogeneous biofilms that after 4 days developed large and abundant microcolonies (FIG. 7A). Biofilms of Δphz1/2 were flatter and consisted of fewer and smaller aggregates scattered throughout the field of view (FIG. 7B). The morphology of 4-day-old biofilms was analyzed using COMSTAT. A fixed threshold value and connected volume filtration were used for all image stacks. Table 6 summarizes the values calculated for mean biofilm thickness, substratum coverage, number of microcolonies at the substratum, surface-to-volume ratio and maximum biofilm thickness for three independent experiments. […] PCA was not tested under these conditions. The mean thickness, the number of microcolonies and the total biomass volume all increased, reaching numbers similar or even higher than those observed for the wild type (Table 6).
# [11] = test system: P. aeruginosa PA14 Δphz mutant; assay: Pyruvate excretion, HPLC of culture filtrates; assay type: cell-based, Pseudomonas aeruginosa; conditions: 50 μM pyocyanin added to the Δphz mutant upon entry into stationary phase
# Method: FIG. 13. Wild type P. aeruginosa PA14 excretes pyruvate in stationary phase, and addition of pyocyanin to Δphz mutant cultures restores the pyruvate excretion phenotype. Cultures were inoculated into MOPS synthetic medium amended with 50 mM glucose (initial OD (500 nm)=0.03). To complement pyruvate excretion, 50 μM pyocyanin was added to the Δphz culture at the time when pyocyanin reached its maximum concentration in the wild type cultures (approximately 12 hours after inoculation). 20 μl of culture filtrates at the 24-hour time point were loaded onto an anion exchange column and subjected to an isocratic gradient in 5 mM H2SO4. Pyruvate peaks (1305, 1310) are indicated by arrows. The elution time of pyruvate drifts slightly but averages around 10.5 minutes. Results shown are representative of three separate experiments. Other peak identities are described in the text.
# Two hundred μl were sampled from MOPS-glucose cultures (10 ml in an 18×150 mm test tube) at regular intervals and filtered (0.2 μm pore). In cases where repeated sampling from the same culture would alter the total culture volume by more than 10%, multiple identical cultures were inoculated from the same pre-culture and sampled sequentially. […] Compounds were detected by UV absorbance at 210 nm. Absolute concentrations of pyruvate were calculated using a standard curve for pyruvate diluted in MOPS buffer. […]
# [12] = test system: Pseudomonas aeruginosa genes/operons; assay: DNA microarrays and quantitative RT-PCR; assay type: cell-based; conditions: P. aeruginosa PA14
# Excerpt: Strikingly, mexGHI-opmD and PA2274 were previously shown to be regulated by the PA14 quorum sensing network that controls the production of virulence factors (including phenazines). Through mutational analysis, it is shown that pyocyanin is the physiological signal for the upregulation of these quorum sensing controlled genes during stationary phase and that the response is mediated by the transcription factor SoxR. Our results implicate phenazines as signaling molecules in both P. aeruginosa PA14 and PAO1. Examples are shown in the paper: Dietrich et al. 2006, The phenazine pyocyanin is a terminal signaling factor in the quorum sensing network of Pseudomonas aeruginosa, Molecular Microbiology Vol. 61, No. 5, page 1308-1321, incorporated herein by reference in its entirety.
# [13] = test system: P. aeruginosa PA14 siderophore null strain (ΔpvdAΔpchE); assay: Flow cell biofilm development, siderophore null strain, 1% TSB; conditions: 10 μM PYO
# [14] = 4 day-old biofilms, Δphz1/2, 25 μM pyocyanin
compound,measurement,setting,value
"O.O=S(=O)([O-])c1ccc(-c2nc(-c3ccccn3)nnc2-c2ccc(S(=O)(=O)O)cc2)cc1.[Na+] [Ferrozine®, 3-(2-Pyridyl)-5,6-diphenyl-1,2,4-triazine-p,p′-disulfonic acid monosodium salt hydrate]",Reduction of biofilm accumulation,"[1]; 100 μM Ferrozine®, ˜10 μM Fe(II) and 10 μM Fe(III) present",24%
same,Reduction of biofilm accumulation,[1]; 200 μM Ferrozine®,reduced it slightly further
same,Dissolution of mature biofilm,[2],~20%
same,Effect on planktonic growth rates,P. aeruginosa,Neither compound affected planktonic growth rates
"O=[N+]([O-])[O-].[K+] [Nitrate, KNO3]",Effect on intracellular NADH/NAD^+ ratios,[3],effected decreases in intracellular NADH/NAD^+ ratios
"O=C(O)c1cccc2nc3ccccc3nc12 [PCA, Phenazine-1-carboxylic acid]",Effect on swarming motility,[4],had no effect on the wild type
same,Effect on swarming motility,[5],significantly decreased the motility of the Δphz1/2 mutant
same,Effect on surface coverage of colonies,"[6]; 0.1M PCA, titration",sufficient to decrease surface coverage of Δphz1/2 colonies to wild-type levels
same,Effect on rugosity and surface coverage of colonies,[6],significantly decreased rugosity and surface coverage of Δphz1/2 colonies
same,Effect on surface coverage of colonies,[6]; higher concentrations of PCA (up to 0.4M),had no additional effects
same,Effect on the structure of colonies,[7],did not noticeably affect the structure of wild-type colonies
same,Increase of biofilm biomass,[8],four times
same,Rescue of the conalbumin-induced biofilm defect,[9],rescued the defect
same,Increase of biofilm biomass compared to biofilms treated with conalbumin alone,"[9]; PCA added to conalbumin-treated medium, day 6",13 factor
same,Wild type biofilm development with PCA added to the control medium,[9]; no conalbumin,developed similarly with respect to structure and biomass regardless of whether PCA was added
"Cn1c2cccc(=O)c-2nc2ccccc21 [PYO, Pyocyanin]",Effect on Δphz1/2 flow cell biofilms,[10]; 25 μM pyocyanin,larger microcolonies and thicker biofilms resulted
same,% Coverage at substratum,[10]; [14],15.2 ± 2.46%
same,Average colony volume,[10]; [14],8170 μm^3
same,Average size of colonies at substratum,[10]; [14],102.6 ± 31 μm^2
same,Average thickness,[10]; [14],5.6 ± 1.6
same,Maximum thickness,[10]; [14],57.5 ± 1.9
same,Roughness coefficient,[10]; [14],1.3
same,Surface to volume ratio,[10]; [14],6.6 ± 0.6 μm^2/μm^3
same,Total biomass,"[10]; 4 day-old biofilms, Δphz1/2, 25 μM pyocyanin in the medium from the beginning",4.3 ± 1 μm^3/μm^2
same,Number of microcolonies,"[10]; 4 day-old biofilms, Δphz1/2, 25 μM pyocyanin, minimum microcolony size at the substratum 10 μm^2",8 ± 1.5
same,Effect on swarming motility,[4],had no inhibitory effect on swarming of either the wild type or Δphz1/2
same,Effect on swarming motility,[5],had no inhibitory effect on swarming of either the wild type or Δphz1/2
same,Increased surface coverage compared to wild-type colonies,[6]; 0.1 M pyocyanin,50%
same,Effect on rugosity and surface coverage of colonies,[6],significantly decreased rugosity and surface coverage of Δphz1/2 colonies
same,Agar surface covered more than wild-type colonies,[6]; pyocyanin 0.2M or higher,35%
same,Effect on the structure of colonies,[7],did not noticeably affect the structure of wild-type colonies
same,Effect on NADH/NAD^+ ratio,[3]; 90 μM oxidized pyocyanin added to Δphz mutant cultures,reduced the NADH/NAD^+ ratio to the wild type level
same,Effect on intracellular NADH/NAD^+ ratios,[3],effected decreases in intracellular NADH/NAD^+ ratios
same,Pyruvate excretion phenotype,[11],complemented the pyruvate excretion phenotype
same,Effect on gene expression,[12],elicits the upregulation of genes/operons that function in transport; also recorded: downregulates genes involved in ferric iron acquisition
same,Rescue without Fe(OH)3(s) relative to rescue with Fe(OH)3(s) addition,[13],2 times
same,Rescue of the conalbumin-induced biofilm defect,[9],did not rescue the conalbumin-induced biofilm defect
